Earlier results in US10755801B2, “Identifying peptides having T-cell-exposed motifs with known frequency of occurrence in a reference database” (IOGENETICS, LLC, priority 2014, dated 2020).
Ends that are not written are not given here.

Test system: CD8+ responses, HLA A 0201 restricted
Conditions: MART-1 peptides, A*0201, melanoma patients; Kawakami

GIGILTVIL
CD8+ T-cell response: stimulated a response
